Measured values published in the NIST ThermoML archive (doi:10.1016/j.jct.2017.08.004).
± gives the expanded uncertainty stated by the source.

Experiment: molar heat capacity at constant pressure
Details: 101.33 kPa, Crystal

OC[C@H](O)C(O)[C@@H](O)CO [L-(-)-arabitol]
Details	molar heat capacity at constant pressure [J/K/mol]
1 K, relaxation calorimetry	0.0009071 ± 0.00011
1.925 K, relaxation calorimetry	0.00486 ± 0.0004
2 K, relaxation calorimetry	0.00537 ± 0.00037
2.126 K, relaxation calorimetry	0.006333 ± 0.00052
2.35 K, relaxation calorimetry	0.008531 ± 0.00065
2.603 K, relaxation calorimetry	0.01139 ± 0.00085
2.89 K, relaxation calorimetry	0.01551 ± 0.0011
3 K, relaxation calorimetry	0.01737 ± 0.0011
3.204 K, relaxation calorimetry	0.02118 ± 0.0015
3.551 K, relaxation calorimetry	0.02864 ± 0.0021
3.938 K, relaxation calorimetry	0.03916 ± 0.0028
4 K, relaxation calorimetry	0.04172 ± 0.0026
4.366 K, relaxation calorimetry	0.05484 ± 0.0039
4.845 K, relaxation calorimetry	0.07705 ± 0.0055
5 K, relaxation calorimetry	0.08452 ± 0.0053
5.374 K, relaxation calorimetry	0.1069 ± 0.0076
5.962 K, relaxation calorimetry	0.1505 ± 0.011
6 K, relaxation calorimetry	0.1535 ± 0.0096
6.615 K, relaxation calorimetry	0.2138 ± 0.015
7 K, relaxation calorimetry	0.26 ± 0.016
7.345 K, relaxation calorimetry	0.3087 ± 0.022
8 K, relaxation calorimetry	0.4176 ± 0.026
8.151 K, relaxation calorimetry	0.4472 ± 0.031
9 K, relaxation calorimetry	0.6348 ± 0.039
9.046 K, relaxation calorimetry	0.6445 ± 0.045
10 K, relaxation calorimetry	0.9169 ± 0.056
10.12 K, relaxation calorimetry	0.9515 ± 0.067
11.21 K, relaxation calorimetry	1.346 ± 0.094
12.43 K, relaxation calorimetry	1.885 ± 0.13
13.79 K, relaxation calorimetry	2.589 ± 0.18
15 K, relaxation calorimetry	3.316 ± 0.2
15.3 K, relaxation calorimetry	3.507 ± 0.24
16.99 K, relaxation calorimetry	4.683 ± 0.33
18.86 K, relaxation calorimetry	6.145 ± 0.43
20 K, relaxation calorimetry	7.063 ± 0.43
21 K, relaxation calorimetry	7.93 ± 0.32
23.34 K, relaxation calorimetry	10 ± 0.41
25 K, relaxation calorimetry	11.59 ± 0.71
25.89 K, relaxation calorimetry	12.41 ± 0.51
28.74 K, relaxation calorimetry	15.2 ± 0.62
30 K, relaxation calorimetry	16.48 ± 1
31.91 K, relaxation calorimetry	18.4 ± 0.75
35 K, relaxation calorimetry	21.5 ± 1.3
35.44 K, relaxation calorimetry	21.96 ± 0.89
39.34 K, relaxation calorimetry	25.96 ± 1.1
40 K, relaxation calorimetry	26.56 ± 1.6
43.67 K, relaxation calorimetry	30.28 ± 1.2
45 K, relaxation calorimetry	31.57 ± 1.9
48.47 K, relaxation calorimetry	34.84 ± 1.4
50 K, relaxation calorimetry	36.42 ± 2.2
53.79 K, relaxation calorimetry	39.93 ± 1.6
55 K, relaxation calorimetry	41.06 ± 2.5
59.71 K, relaxation calorimetry	45.44 ± 1.8
60 K, relaxation calorimetry	45.6 ± 2.8
65 K, relaxation calorimetry	50.22 ± 3.1
66.3 K, relaxation calorimetry	51.38 ± 2.1
70 K, relaxation calorimetry	54.55 ± 3.3
73.59 K, relaxation calorimetry	57.52 ± 2.3
75 K, relaxation calorimetry	58.73 ± 3.6
80 K, relaxation calorimetry	62.81 ± 3.8
81.71 K, relaxation calorimetry	64.34 ± 2.6
85 K, relaxation calorimetry	66.8 ± 4.1
90 K, relaxation calorimetry	70.7 ± 4.3
90.67 K, relaxation calorimetry	71.56 ± 2.9
95 K, relaxation calorimetry	74.53 ± 4.6
100 K, relaxation calorimetry	78.28 ± 4.8
100.62 K, relaxation calorimetry	78.32 ± 3.2
110 K, relaxation calorimetry	85.55 ± 5.2
110.77 K, relaxation calorimetry	85.86 ± 3.5
120 K, relaxation calorimetry	92.52 ± 5.7
120.75 K, relaxation calorimetry	93.29 ± 3.8
130 K, relaxation calorimetry	99.22 ± 6.1
130.83 K, relaxation calorimetry	99.89 ± 4.1
140 K, relaxation calorimetry	105.69 ± 6.5
141 K, relaxation calorimetry	106.35 ± 4.3
150 K, relaxation calorimetry	111.98 ± 6.9
151.08 K, relaxation calorimetry	112.59 ± 4.6
160 K, relaxation calorimetry	118.13 ± 7.2
161.19 K, relaxation calorimetry	118.71 ± 4.8
170 K, relaxation calorimetry	124.19 ± 7.6
171.26 K, relaxation calorimetry	124.81 ± 5.1
180 K, relaxation calorimetry	130.18 ± 8
181.32 K, relaxation calorimetry	131.15 ± 5.3
188.15 K, Small sample (50 mg) DSC	129.04 ± 26
189.15 K, Small sample (50 mg) DSC	130.57 ± 26
190 K, relaxation calorimetry	136.16 ± 8.3
190.15 K, Small sample (50 mg) DSC	131.98 ± 26
191.15 K, Small sample (50 mg) DSC	132.97 ± 27
191.4 K, relaxation calorimetry	137.23 ± 5.6
192.15 K, Small sample (50 mg) DSC	133.65 ± 27
193.15 K, Small sample (50 mg) DSC	134.27 ± 27
194.15 K, Small sample (50 mg) DSC	135.12 ± 27
195.15 K, Small sample (50 mg) DSC	135.91 ± 27
196.15 K, Small sample (50 mg) DSC	136.66 ± 27
197.15 K, Small sample (50 mg) DSC	137.42 ± 28
198.15 K, Small sample (50 mg) DSC	138.16 ± 28
199.15 K, Small sample (50 mg) DSC	138.8 ± 28
200 K, relaxation calorimetry	142.15 ± 8.7
200.15 K, Small sample (50 mg) DSC	139.49 ± 28
201.15 K, Small sample (50 mg) DSC	140.3 ± 28
201.57 K, relaxation calorimetry	142.67 ± 5.8
202.15 K, Small sample (50 mg) DSC	141.06 ± 28
203.15 K, Small sample (50 mg) DSC	141.64 ± 28
204.15 K, Small sample (50 mg) DSC	142.39 ± 29
205.15 K, Small sample (50 mg) DSC	143.02 ± 29
206.15 K, Small sample (50 mg) DSC	143.74 ± 29
207.15 K, Small sample (50 mg) DSC	144.43 ± 29
208.15 K, Small sample (50 mg) DSC	145.06 ± 29
209.15 K, Small sample (50 mg) DSC	145.72 ± 29
210 K, relaxation calorimetry	148.19 ± 9.1
210.15 K, Small sample (50 mg) DSC	146.38 ± 29
211.15 K, Small sample (50 mg) DSC	147.05 ± 29
211.68 K, relaxation calorimetry	149.03 ± 6
212.15 K, Small sample (50 mg) DSC	147.72 ± 30
213.15 K, Small sample (50 mg) DSC	148.33 ± 30
214.15 K, Small sample (50 mg) DSC	149.06 ± 30
215.15 K, Small sample (50 mg) DSC	149.6 ± 30
216.15 K, Small sample (50 mg) DSC	150.38 ± 30
217.15 K, Small sample (50 mg) DSC	151.13 ± 30
218.15 K, Small sample (50 mg) DSC	152.05 ± 30
219.15 K, Small sample (50 mg) DSC	152.76 ± 31
220 K, relaxation calorimetry	154.3 ± 9.4
220.15 K, Small sample (50 mg) DSC	153.39 ± 31
221.15 K, Small sample (50 mg) DSC	153.99 ± 31
221.77 K, relaxation calorimetry	155.91 ± 6.3
222.15 K, Small sample (50 mg) DSC	154.72 ± 31
223.15 K, Small sample (50 mg) DSC	155.35 ± 31
224.15 K, Small sample (50 mg) DSC	155.94 ± 31
225.15 K, Small sample (50 mg) DSC	156.64 ± 31
226.15 K, Small sample (50 mg) DSC	157.32 ± 32
227.15 K, Small sample (50 mg) DSC	157.87 ± 32
228.15 K, Small sample (50 mg) DSC	158.58 ± 32
229.15 K, Small sample (50 mg) DSC	159.08 ± 32
230 K, relaxation calorimetry	160.49 ± 9.8
230.15 K, Small sample (50 mg) DSC	159.71 ± 32
231.15 K, Small sample (50 mg) DSC	160.4 ± 32
231.87 K, relaxation calorimetry	161.72 ± 9.9
232.15 K, Small sample (50 mg) DSC	160.98 ± 32
233.15 K, Small sample (50 mg) DSC	161.67 ± 32
234.15 K, Small sample (50 mg) DSC	162.2 ± 33
235.15 K, Small sample (50 mg) DSC	162.87 ± 33
236.15 K, Small sample (50 mg) DSC	163.51 ± 33
237.15 K, Small sample (50 mg) DSC	164.14 ± 33
238.15 K, Small sample (50 mg) DSC	164.86 ± 33
239.15 K, Small sample (50 mg) DSC	165.4 ± 33
240 K, relaxation calorimetry	166.8 ± 10
240.15 K, Small sample (50 mg) DSC	166.04 ± 33
241.15 K, Small sample (50 mg) DSC	166.73 ± 33
241.87 K, relaxation calorimetry	168.05 ± 10
242.15 K, Small sample (50 mg) DSC	167.44 ± 34
243.15 K, Small sample (50 mg) DSC	168.16 ± 34
